Key:
[1] = system: Hep3B, HepG2 & Huh7 cell lines; experiment: Uptake of [3H]-labeled nucleosides by different human liver cell lines; format: cell-based; details: for nucleoside uptake into hepatocytes (radioactivity in the cell lysate): Hep3B, HepG2, Huh7, 20 μCi/ml [3H]-nucleoside plus 10 μM cold nucleoside, 4 hr at 37° C, FIG. 1
Protocol: In order to determine whether Ribavirin and Viramidine™ use a similar mode of entry in human hepatocytes, the inventors performed several experiments. First, various strains of hepatocytes (Hep3B, HepG2, and Huh7) were incubated with various nucleotide analogs (e.g., Ribavirin, Levovirin (the L-isomer of Ribavirin), and Viramidine™), and the result of the nucleoside uptake experiments are illustrated in FIG. 1.
Hep3B, HepG2 & Huh7 cell lines were used at a concentration of 50,000 cells/well in a 24-wells plate, and incubated with [^3H]-labeled Ribavirin, Levovirin™, and Viramidine™ (20 μCi/ml) plus 10 μM cold nucleoside for 4 hr at 37° C. The cells were washed with PBS and lysed, and the radioactivity in the cell lysate (i.e.the amount of labeled nucleoside taken up by the cells) was determined in a scintillation counter.

HepG2 cells = experiment: Nucleoside competition assay; format: cell-based, human; details: cold competitor 0, 100 μM, 500 μM, 2 mM, 2 hrs at 37° C
Protocol: To address this question, the inventors performed uptake competition experiments in which radiolabeled Ribavirin or Viramidine™ competed for uptake with unlabeled Viramidine™ or Ribavirin, respectively.
50,000 HepG2 cells/well were placed in a 24-wells plate and incubated with [3H]-labeled nucleoside (20 μCi/ml). Competition was performed with increasing concentrations of cold (0, 100 μM, 500 μM, and 2 mM) competitor nucleoside. Incubation time was 2 hrs at 37° C. The cells were then washed with PBS and lysed. The radioactivity in the cell lysate (i.e. the amount of labeled nucleoside taken up by the cells) was determined in a scintillation counter.

erythrocytes [2] = details: stated as known for Ribavirin; cited from earlier work
Water solubility = format: physicochemical
Source text: It is contemplated that Viramidine™*HCl (in either D- or L-configuration) will be administered in any appropriate pharmaceutical formulation, and under any appropriate protocol. Thus, administration may take place orally, parenterally (including subcutaneous injections, intravenous, intramuscularly, by intrasternal injection or infusion techniques), by inhalation spray, or rectally, topically and so forth, and in dosage unit formulations containing conventional non-toxic pharmaceutically acceptable carriers, adjuvants and vehicles. By way of example, it is contemplated that Viramidine™*HCl can be formulated in admixture with a pharmaceutically acceptable carrier. For example, Viramidine™*HCl can be administered orally as pharmacologically acceptable salts. […] Conventional buffers such as phosphates, bicarbonates or citrates can be used for this purpose. Of course, one of ordinary skill in the art may modify the formulations within the teachings of the specification to provide numerous formulations for a particular route of administration without rendering Viramidine™*HCl unstable or compromising their therapeutic activity. In particular, the modification of Viramidine™*HCl to render it more soluble in water or another vehicle, for example, may be easily accomplished by minor modifications (salt formulation, esterification, etc.) that are well within the ordinary skill in the art. […]

flaviviridae = experiment: Inhibition of growth of flaviviridae in a cell containing medium; format: cell-based; details: added to a cell-containing medium; data not shown
Source text: The family of flaviviridae has recently gained special attention due to several occurrences of West Nile Virus encephalitis in the eastern part of the USA, resulting in at least 7 reported deaths and at least 62 cases of severe disease. Moreover, hepatitis C-like viruses (and the HCV virus) also belong to the family of flaviviridae, further adding to the significance of flaviviridae with respect to public and private health. While not wishing to be bound by a particular theory or hypothesis, it is contemplated that increased transport of Viramidine™*HCl is particularly beneficial for treatment of flaviridae-virus infections.

[3] = system: deaminase/deamidase activity in hepatocytes; experiment: Conversion of carboxamidine to carboxamide in the liver; format: in vitro ADME; details: unpublished results
Source text: Therefore, it is contemplated that by including a carboxamidine group to a molecule and exploiting the relatively high deaminase/deamidase acitivity of hepatocytes, molecules may be specifically targeted to the liver. With respect to contemplated molecules having a —C(NR1)(NR2R3) it should be appreciated that various deaminase/deamidase acitivities of hepatocytes are sufficiently high to convert such compounds from a prodrug form into an active drug form (e.g., drug activity is increased when carboxamide group is present).

erythrocytes [4] = experiment: Uptake into erythrocytes; format: cell-based; details: data not shown
Source text: Thus, it should be appreciated that toxicity of a nucleoside or nucleotide compound can be reduced by modifying the compound to include a carboxamidine moiety or modified carboxamidine moiety as described above, wherein target cells for modified compounds include a transporter system, which non-target cells lack. […] It is contemplated that this difference in uptake is attributable to the lack of a Viramidine™ uptake and/or transporter system.

For `NC(=O)c1ncn([C@H]2O[C@@H](CO)[C@H](O)[C@@H]2O)n1` [Levovirin, reference compound], the “nucleoside uptake into hepatocytes (radioactivity in the cell lysate)” value (shortened to “nucleoside uptake into hepatocytes”) [1] was “taken up into all of the tested hepatocytes”.
For `NC(=O)c1ncn([C@@H]2O[C@H](CO)[C@@H](O)[C@H]2O)n1` [Ribavirin, 1-beta-D-ribofuranosyl-1,2,4-triazole-3-carboxamide, reference compound], the “nucleoside uptake into hepatocytes” value [1] is given as “more efficiently taken up over the L-isomer of Ribavirin”, the “competition of [3H]-Viramidine uptake by unlabeled competitor” value (HepG2 cells; FIG. 3) is given as “at least partial competition” and the “uptake into erythrocytes (background statement)” value (erythrocytes [2]) is given as “readily taken up by erythrocytes”.
For `Cl.N=C(N)c1ncn([C@@H]2O[C@H](CO)[C@@H](O)[C@H]2O)n1` [Viramidine™*HCl, 1-beta-D-ribofuranosyl-1,2,4-triazole-3-carboxamidine*HCl], the water solubility (Water solubility) was “mostly water soluble” and the “inhibition of growth of flaviviridae” value (flaviviridae) was “can be inhibited”.
In the case of `N=C(N)c1ncn([C@@H]2O[C@H](CO)[C@@H](O)[C@H]2O)n1` [Viramidine™, 1-beta-D-ribofuranosyl-1,2,4-triazole-3-carboxamidine], the “nucleoside uptake into hepatocytes” value [1] is reported as “taken up to a significantly higher degree in all three cell lines”, the “rate of uptake into, and overall concentration in, hepatocytes as compared to Ribavirin” value ([1]; hepatocytes) is reported as “significantly higher” and the “competition of [3H]-Ribavirin uptake by unlabeled competitor” value (HepG2 cells; FIG. 2) is reported as “at least partial competition”. The “conversion in the liver” value [3] was “converted in the liver to Ribavirin” and the uptake into erythrocytes (erythrocytes [4]) was “not taken up into erythrocytes”.

From US20040077563A1, “Methods of drug delivery to hepatocytes and treatment of flaviviridae infections” (priority 2003, published 2004)
